Laboratory results from US20130158127A1, “TEA TREE OIL DERIVATIVES” (priority 2011, published 2013).

Tested on: Vero cells
Assay: Vero cell cytotoxicy assays (light microscopy of monolayers)

Work on polysorbate 60 [PS-60] yielded a sub-toxic dose (a small proportion of cells appeared to remain healthy) of 0.125% and a non-toxic dose (no changes compared to the untreated control) of 0.06%.
